From publication PMC12250302, “Synthesis, Antimicrobial Activities, and Model of Action of Novel Tetralone Derivatives Containing Aminoguanidinium Moiety” (International Journal of Molecular Sciences, 2025)
Converted amounts (≈) assume the structure as drawn. Like-named read-outs stand apart in the source and are kept apart here.

Columns and labels:
[1] = test system: E. faecium ATCC 35667; experiment: MIC and MBC testing, broth microdilution; assay type: cell-based, Enterococcus faecium; conditions: E. faecium ATCC 35667; for MIC: 18 h
Outline: (§1)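 Bacteria are grown in MH broth to log phase, diluted to 1 × 10^6 CFU/mL, then added to doubling dilutions of compound. After 18 h incubation at 37 °C, the lowest concentration lacking visible growth is recorded as MIC. Each concentration is run in triplicate.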

[2] = test system: S. aureus ATCC 29213; experiment: MIC and MBC testing, broth microdilution; assay type: cell-based, Staphylococcus aureus; conditions: S. aureus ATCC 29213; for MIC: 18 h
Outline: as §1

[3] = test system: K. pneumoniae ATCC 700603; experiment: MIC and MBC testing, broth microdilution; assay type: cell-based, Klebsiella pneumoniae
Outline: as §1

[4] = test system: A. baumannii ATCC 19606; experiment: MIC and MBC testing, broth microdilution; assay type: cell-based, Acinetobacter baumannii
Outline: as §1

[5] = test system: P. aeruginosa ATCC 27853; experiment: MIC and MBC testing, broth microdilution; assay type: cell-based, Pseudomonas aeruginosa
Outline: as §1

[6] = test system: E. coli ATCC 25922; experiment: MIC and MBC testing, broth microdilution; assay type: cell-based, Escherichia coli
Outline: as §1

[7] = test system: MRSA-1; experiment: MIC and MBC testing, broth microdilution; assay type: cell-based, Staphylococcus aureus; conditions: MRSA-1; for MIC: 18 h
Outline: (§2)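 Broth microdilution in MH broth: 2-fold compound dilutions from DMSO stocks, log-phase clinical S. aureus isolates or MRSA-1 at 1 × 10^6 CFU/mL, 18 h at 37 °C, each concentration in triplicate. MIC recorded; MBC also determined.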

[8] = test system: MRSA-2; experiment: MIC and MBC testing, broth microdilution; assay type: cell-based, Staphylococcus aureus; conditions: MRSA-2; for MIC: 18 h
Outline: (§3)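 Log-phase cultures, adjusted to 1 × 10^6 CFU/mL in MH broth, are exposed to twofold serial compound dilutions and held at 37 °C for 18 h. Triplicate per concentration; both inhibitory and bactericidal endpoints are taken.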

[9] = test system: clinical S. aureus isolate LMY45; experiment: MIC and MBC testing, broth microdilution; assay type: cell-based, Staphylococcus aureus; conditions: LMY45; for MIC: 18 h
Outline: as §2

[10] = test system: clinical S. aureus isolate LMY46; experiment: MIC and MBC testing, broth microdilution; assay type: cell-based, Staphylococcus aureus; conditions: LMY46; for MIC: 18 h
Outline: as §2

[11] = test system: clinical S. aureus isolate LMY47; experiment: MIC and MBC testing, broth microdilution; assay type: cell-based, Staphylococcus aureus; conditions: LMY47; for MIC: 18 h
Outline: as §3

[12] = test system: clinical S. aureus isolate LMY48; experiment: MIC and MBC testing, broth microdilution; assay type: cell-based, Staphylococcus aureus; conditions: LMY48; for MIC: 18 h
Outline: as §2

[13] = test system: MRSA; experiment: MIC testing, summary over MRSA strains; assay type: cell-based; conditions: Staphylococcus aureus; against MRSA
Experimental: (§4) The minimum inhibitory concentration (MIC) of all synthesized compounds was tested by the broth microdilution method. In brief, compounds dissolved in DMSO were diluted twice continuously in a 96-well plate with MH broth. The ESKAPE pathogens (E. coli ATCC 25922, S. aureus ATCC 29213, K. pneumoniae ATCC 700603, A. baumannii ATCC 19606, P. aeruginosa ATCC 27853, and E. faecium ATCC 35667), clinical S. aureus isolates (LMY45, LMY46, LMY47, and LMY48) and methicillin-resistant Staphylococcus aureus (MRSA-1 and MRSA-2) were cultured in MH broth to logarithmic growth phase and then diluted to 1 × 10^6 CFU/mL in MH broth. Subsequently, the diluted bacterial solution was mixed with the diluted compound solution in a 96-well plate and incubated at 37 °C for a duration of 18 h. The MIC of the compounds was recorded as the lowest concentration at which no visible growth was observed. […] Each concentration was replicated thrice.

[14] = test system: S. aureus, including MRSA; experiment: MIC testing, summary over S. aureus strains; assay type: cell-based; conditions: Staphylococcus aureus
Experimental: as §4

[15] = Enterococcus faecium, ATCC35667, read-out: MIC
[16] = Enterococcus faecium, ATCC35667, read-out: MBC
[17] = Staphylococcus aureus, ATCC29213, read-out: MIC
[18] = Staphylococcus aureus, ATCC29213, read-out: MBC
[19] = Klebsiella pneumoniae, ATCC700603, 18 h, read-out: MIC
[20] = Acinetobacter baumannii, ATCC19606, 18 h, read-out: MIC
[21] = Acinetobacter baumannii, ATCC19606, read-out: MBC
[22] = Pseudomonas aeruginosa, ATCC27853, 18 h, read-out: MIC
[23] = Escherichia coli, ATCC25922, 18 h, read-out: MIC
[24] = Escherichia coli, ATCC25922, read-out: MBC
[25] = Staphylococcus aureus, read-out: MIC
[26] = Staphylococcus aureus, read-out: MBC

[H]/N=C(\N)NN=C1CCCc2cc(OCc3ccc(Br)cc3)ccc21 [Compound 1S, (E)-2-(6-((4-bromobenzyl)oxy)-3,4-dihydronaphthalen-1(2H)-ylidene)hydrazine-1-carboximidamide]
MIC [1, 15]: 4 µg/mL (≈ 10.3 µM)
MBC [1, 16]: 8 µg/mL (≈ 20.7 µM)
MIC [2, 17]: 2 µg/mL (≈ 5.16 µM)
MBC [2, 18]: 8 µg/mL (≈ 20.7 µM)
MIC [3, 19]: 16 µg/mL (≈ 41.3 µM)
MBC ([3]; Klebsiella pneumoniae, ATCC700603, read-out: MBC): 16 µg/mL (≈ 41.3 µM)
MIC [4, 20]: 8 µg/mL (≈ 20.7 µM)
MBC [4, 21]: 16 µg/mL (≈ 41.3 µM)
MIC [5, 22]: > 32 µg/mL
MIC [6, 23]: 4 µg/mL (≈ 10.3 µM)
MBC [6, 24]: 8 µg/mL (≈ 20.7 µM)
MIC [7, 25]: 1 µg/mL (≈ 2.58 µM)
MBC [7, 26]: 4 µg/mL (≈ 10.3 µM)
MIC [8, 25]: 1 µg/mL (≈ 2.58 µM)
MBC [8, 26]: 4 µg/mL (≈ 10.3 µM)
MIC [9, 25]: 2 µg/mL (≈ 5.16 µM)
MBC [9, 26]: 4 µg/mL (≈ 10.3 µM)
MIC [10, 25]: 1 µg/mL (≈ 2.58 µM)
MBC [10, 26]: 4 µg/mL (≈ 10.3 µM)
MIC [11, 25]: 2 µg/mL (≈ 5.16 µM)
MBC [11, 26]: 4 µg/mL (≈ 10.3 µM)
MIC [12, 25]: 4 µg/mL (≈ 10.3 µM)
MBC [12, 26]: 8 µg/mL (≈ 20.7 µM)
MIC [13]: 1 to 2 µg/mL (≈ 2.58 to 5.16 µM)
MIC [14]: 0.5 to 4 µg/mL (≈ 1.29 to 10.3 µM)

CC(C)=CCC/C(C)=C/COc1ccc2c(c1)CCC/C2=N\NC(=N)N [Compound 2J, 2-((E)-6-(((E)-3,7-dimethylocta-2,6-dien-1-yl)oxy)-3,4-dihydronaphthalen-1(2H)-ylidene)hydrazine-1-carboximidamide]
MIC [1, 15]: 2 µg/mL (≈ 5.64 µM)
MBC [1, 16]: 8 µg/mL (≈ 22.6 µM)
MIC [2, 17]: 4 µg/mL (≈ 11.3 µM)
MBC [2, 18]: 8 µg/mL (≈ 22.6 µM)
MIC [3, 19]: > 32 µg/mL
MIC [4, 20]: 8 µg/mL (≈ 22.6 µM)
MBC [4, 21]: 16 µg/mL (≈ 45.1 µM)
MIC [5, 22]: 32 µg/mL (≈ 90.3 µM)
MBC ([5]; Pseudomonas aeruginosa, ATCC27853, read-out: MBC): 32 µg/mL (≈ 90.3 µM)
MIC [6, 23]: 8 µg/mL (≈ 22.6 µM)
MBC [6, 24]: 16 µg/mL (≈ 45.1 µM)
MIC [7, 25]: 2 µg/mL (≈ 5.64 µM)
MBC [7, 26]: 16 µg/mL (≈ 45.1 µM)
MIC [8, 25]: 2 µg/mL (≈ 5.64 µM)
MBC [8, 26]: 16 µg/mL (≈ 45.1 µM)
MIC [9, 25]: 4 µg/mL (≈ 11.3 µM)
MBC [9, 26]: 16 µg/mL (≈ 45.1 µM)
MIC [10, 25]: 2 µg/mL (≈ 5.64 µM)
MBC [10, 26]: > 32 µg/mL
MIC [11, 25]: 2 µg/mL (≈ 5.64 µM)
MBC [11, 26]: 16 µg/mL (≈ 45.1 µM)
MIC [12, 25]: 4 µg/mL (≈ 11.3 µM)
MBC [12, 26]: 8 µg/mL (≈ 22.6 µM)

(E)-2-(6-((2,4-dichlorobenzyl)oxy)-3,4-dihydro-1(2H)-naphthalenylidene)hydrazine-1-carboxamide [Compound 1O]
MBC [1]: 16 µg/mL
MIC [1]: 2 µg/mL
MBC [2]: 8 µg/mL
MIC [2]: 4 µg/mL
MIC ([3]; 18 h): >32/- µg/mL
MBC [4]: 16 µg/mL
MIC ([4]; 18 h): 16 µg/mL
MIC ([5]; 18 h): >32/- µg/mL
MBC [6]: 16 µg/mL
MIC ([6]; 18 h): 8 µg/mL
MBC [7]: 16 µg/mL
MIC [7]: 1 µg/mL
MBC [8]: 8 µg/mL
MIC [8]: 2 µg/mL
MBC [9]: 16 µg/mL
MIC [9]: 2 µg/mL
MBC [10]: 8 µg/mL
MIC [10]: 4 µg/mL
MBC [11]: 4 µg/mL
MIC [11]: ≤ 1 µg/mL
MBC [12]: 2 µg/mL
MIC [12]: ≤ 1 µg/mL

(E)-2-(6-((3,4-dichlorobenzyl)oxy)-3,4-dihydro-1(2H)-naphthalenylidene)hydrazine-1-carboxamide [Compound 1P]
MBC [1]: 8 µg/mL
MIC [1]: 2 µg/mL
MBC [2]: 8 µg/mL
MIC [2]: 2 µg/mL
MBC [3]: 32 µg/mL
MIC ([3]; 18 h): 32 µg/mL
MBC [4]: 16 µg/mL
MIC ([4]; 18 h): 8 µg/mL
MIC ([5]; 18 h): >32/- µg/mL
MBC [6]: 16 µg/mL
MIC ([6]; 18 h): 8 µg/mL
MBC [7]: 16 µg/mL
MIC [7]: 1 µg/mL
MBC [8]: 4 µg/mL
MIC [8]: 2 µg/mL
MBC [9]: 4 µg/mL
MIC [9]: 2 µg/mL
MBC [10]: 8 µg/mL
MIC [10]: 2 µg/mL
MBC [11]: 4 µg/mL
MIC [11]: 2 µg/mL
MBC [12]: ≤ 1 µg/mL
MIC [12]: ≤ 1 µg/mL

(E)-2-(6-((4-chlorobenzyl)oxy)-3,4-dihydro-1(2H)-naphthalenylidene)hydrazine-1-carboxamide [Compound 1N]
MBC [1]: 8 µg/mL
MIC [1]: 2 µg/mL
MBC [2]: 4 µg/mL
MIC [2]: 2 µg/mL
MBC [3]: 32 µg/mL
MIC ([3]; 18 h): 16 µg/mL
MBC [4]: 16 µg/mL
MIC ([4]; 18 h): 4 µg/mL
MBC [5]: 32 µg/mL
MIC ([5]; 18 h): 16 µg/mL
MBC [6]: 8 µg/mL
MIC ([6]; 18 h): 4 µg/mL
MBC [7]: 4 µg/mL
MIC [7]: 2 µg/mL
MBC [8]: 4 µg/mL
MIC [8]: 2 µg/mL
MBC [9]: 4 µg/mL
MIC [9]: 2 µg/mL
MBC [10]: 8 µg/mL
MIC [10]: 4 µg/mL
MBC [11]: 2 µg/mL
MIC [11]: 2 µg/mL
MBC [12]: 16 µg/mL
MIC [12]: 2 µg/mL
